From patent US20260022142A1, “MACROCYCLIC IMMUNOMODULATORS” (Bristol-Myers Squibb Company, priority 2022, published 2026) come the findings set out here.

pIC50: −log10 of the molar value. Bridge positions count the residues as written; N and C are the ends. Square brackets hold non-standard residues; d marks the D form. Peptide text beside a SMILES is read from it. * marks the point of attachment. Bip = N[C@@H](Cc1ccc(-c2ccccc2)cc1)C(=O)O; Phe(3-Me) = Cc1cccc(C[C@H](N)C(=O)O)c1; Cha = N[C@@H](CC1CCCCC1)C(=O)O; Cit = NC(=O)NCCC[C@H](N)C(=O)O; Dap(Me) = CNC[C@H](N)C(=O)O; Carboxymethyl = O=C(O)C*; NMeA = CN[C@@H](C)C(=O)O; Orn = NCCC[C@H](N)C(=O)O; Aun = NCCCCCCCCCCC(=O)O; Dab = NCC[C@H](N)C(=O)O; Dap = NC[C@H](N)C(=O)O; Aib = CC(C)(N)C(=O)O

In this assay the target is T1, PD-1/PD-L1 interaction (PE-labeled human PD-L1-Ig binding to Jurkat cell line over-expressing human PD-1) (Homo sapiens, UniProt Q15116).
T1 construct: expressed in transfected cells; host or cells: Jurkat
T1 sequence (Q15116 25-288): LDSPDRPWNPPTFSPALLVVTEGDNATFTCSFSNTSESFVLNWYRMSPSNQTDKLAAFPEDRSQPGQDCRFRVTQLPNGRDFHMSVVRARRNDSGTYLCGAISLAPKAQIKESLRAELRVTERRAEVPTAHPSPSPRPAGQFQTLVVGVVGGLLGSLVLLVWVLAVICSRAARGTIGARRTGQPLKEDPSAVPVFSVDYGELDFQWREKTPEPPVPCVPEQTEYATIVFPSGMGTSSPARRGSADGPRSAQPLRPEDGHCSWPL
Kind of assay: Jurkat-PD-1 Cell Binding High-Content Screening Assay (CBA). The settings on record: Jurkat cell line over-expressing human PD-1; PE-labeled PD-L1-Ig 20 nM final; read-out: Jurkat hPD1-PDL1 IC50. Type of assay: cell-based. Summed up:
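First, compound is added to PD-1-expressing Jurkat cells in serum-containing DMEM and left 2 h at 37° C. Next, PE-conjugated PD-L1-Ig is introduced at 20 nM final concentration for 1 hour. Finally, cells are fixed in 4% paraformaldehyde with Hoechst 33342, washed and imaged.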
With `Cc1cccc(C[C@@H]2NC(=O)[C@H](CC(=O)O)NC(=O)[C@H](Cc3ccc(OCC(=O)O)cc3)NC(=O)[C@H](CN)NC(=O)CSC[C@@H](C(=O)N(C)[C@@H](C)C(=O)N[C@@H](CCC(=O)O)C(=O)NCCCCCCCCCCC(=O)O)NC(=O)[C@H]([C@@H](C)O)NC(=O)[C@H](C(C)C)NC(=O)[C@H](CC3CCCCC3)NC(=O)[C@H](CCN)NC(=O)[C@@H](CC(C)C)NC(=O)[C@H](CCCN)NC(=O)[C@H](CCCNC(N)=O)NC(=O)[C@H](Cc3ccc(-c4ccccc4)cc3)NC(=O)[C@H](C(C)C)NC2=O)c1` [Compound 2783] ({CH2CO}-[Dap]Y(Carboxymethyl)D[Phe(3-Me)]V[Bip][Cit][Orn][dL][Dab][Cha]VTC[NMeA]E[Aun]-OH; thioether N-14), the pIC50 is 6.43. Take `Cc1cccc(C[C@@H]2NC(=O)[C@H](CC(=O)O)NC(=O)[C@H](Cc3ccc(OCC(=O)O)cc3)NC(=O)[C@H](CN)NC(=O)CSC[C@@H](C(=O)NC(C)(C)C(=O)N[C@@H](CCC(=O)O)C(=O)NCCCCCCCCCCC(=O)O)NC(=O)[C@H]([C@@H](C)O)NC(=O)[C@H](C(C)C)NC(=O)[C@H](CC3CCCCC3)NC(=O)[C@H](CCN)NC(=O)[C@@H](CC(C)C)NC(=O)[C@H](CCCN)NC(=O)[C@H](CCCNC(N)=O)NC(=O)[C@H](Cc3ccc(-c4ccccc4)cc3)NC(=O)[C@H](C(C)C)NC2=O)c1` [Compound 2784] ({CH2CO}-[Dap]Y(Carboxymethyl)D[Phe(3-Me)]V[Bip][Cit][Orn][dL][Dab][Cha]VTC[Aib]E[Aun]-OH; thioether N-14): the pIC50 is 7.66. For `CC(C)C[C@H]1NC(=O)[C@H](CCCN)NC(=O)[C@H](C(C)C)NC(=O)[C@H](Cc2ccc(-c3ccccc3)cc2)NC(=O)[C@H](C(C)C)NC(=O)[C@H](Cc2c[nH]c3ccccc23)NC(=O)[C@H](CC(=O)O)NC(=O)[C@H](Cc2ccc(OCC(=O)O)cc2)NC(=O)[C@H](Cc2c[nH]cn2)NC(=O)CSC[C@@H](C(=O)N[C@H](C)C(=O)N[C@@H](CCC(=O)O)C(=O)NCCCCCCCCCCC(=O)O)NC(=O)[C@H]([C@@H](C)O)NC(=O)[C@H](C(C)C)NC(=O)[C@H](CC2CCCCC2)NC(=O)[C@H](CCN)NC1=O` [Compound 2785] ({CH2CO}-HY(Carboxymethyl)DWV[Bip]V[Orn][dL][Dab][Cha]VTC[dA]E[Aun]-OH; thioether N-14), the pIC50 is 7.79. In the case of `CNC[C@H](NC(=O)[C@@H]1CSCC(=O)N[C@@H](CN)C(=O)N[C@@H](Cc2ccc(OCC(=O)O)cc2)C(=O)N[C@@H](CC(=O)O)C(=O)N[C@@H](Cc2cccc(C)c2)C(=O)N[C@@H](C(C)C)C(=O)N[C@@H](Cc2ccc(-c3ccccc3)cc2)C(=O)N[C@@H](CCCNC(N)=O)C(=O)N[C@@H](CCCN)C(=O)N[C@H](CC(C)C)C(=O)N[C@@H](CCN)C(=O)N[C@@H](CC2CCCCC2)C(=O)N[C@@H](C(C)C)C(=O)N[C@@H]([C@@H](C)O)C(=O)N1)C(=O)NCCCCCCCCCCC(=O)O` [Compound 2787] ({CH2CO}-[Dap]Y(Carboxymethyl)D[Phe(3-Me)]V[Bip][Cit][Orn][dL][Dab][Cha]VTC[Dap(Me)][Aun]-OH; thioether N-14), the pIC50 was 7.55.

With `CC(C)C[C@H]1NC(=O)[C@H](CCCN)NC(=O)[C@H](C(C)C)NC(=O)[C@H](Cc2ccc(-c3ccccc3)cc2)NC(=O)[C@H](C(C)C)NC(=O)[C@H](Cc2c[nH]c3ccccc23)NC(=O)[C@H](CC(=O)O)NC(=O)[C@H](Cc2ccc(OCC(=O)O)cc2)NC(=O)[C@H](CN)NC(=O)CSC[C@@H](C(=O)N[C@@H](CCN)C(=O)NCCCCCCCCCCC(=O)O)NC(=O)[C@H](CCC(=O)O)NC(=O)[C@H](C(C)C)NC(=O)[C@H](CC2CCCCC2)NC(=O)[C@H](Cc2c[nH]cn2)NC1=O` [Compound 2788] ({CH2CO}-[Dap]Y(Carboxymethyl)DWV[Bip]V[Orn][dL]H[Cha]VEC[Dab][Aun]-OH; thioether N-14), the pIC50 is 7.65.

For `Cc1cccc(C[C@@H]2NC(=O)[C@H](CC(=O)O)NC(=O)[C@H](Cc3ccc(O)cc3)NC(=O)[C@H](CC(N)=O)NC(=O)CSC[C@@H](C(=O)N[C@@H](CCN)C(=O)NCCCCCCCCCCC(=O)O)NC(=O)[C@H](CCC(N)=O)NC(=O)[C@H](C(C)C)NC(=O)[C@H](CC(C)C)NC(=O)[C@H](CCN)NC(=O)[C@@H](CC(C)C)NC(=O)[C@H](CCCN)NC(=O)[C@H](CCCNC(N)=O)NC(=O)[C@H](Cc3ccc(-c4ccccc4)cc3)NC(=O)[C@H](C(C)C)NC2=O)c1` [Compound 2789] ({CH2CO}-NYD[Phe(3-Me)]V[Bip][Cit][Orn][dL][Dab]LVQC[Dab][Aun]-OH; thioether N-14), the pIC50 was 7.62.

Consider `Cc1cccc(C[C@@H]2NC(=O)[C@H](CC(=O)O)NC(=O)[C@H](Cc3ccc(O)cc3)NC(=O)[C@H](CC(N)=O)NC(=O)CSC[C@@H](C(=O)N[C@@H](CCCN)C(=O)NCCCCCCCCCCC(=O)O)NC(=O)[C@H](CCC(N)=O)NC(=O)[C@H](C(C)C)NC(=O)[C@H](CC(C)C)NC(=O)[C@H](CCN)NC(=O)[C@@H](CC(C)C)NC(=O)[C@H](CCCN)NC(=O)[C@H](CCCNC(N)=O)NC(=O)[C@H](Cc3ccc(-c4ccccc4)cc3)NC(=O)[C@H](C(C)C)NC2=O)c1` [Compound 2790] ({CH2CO}-NYD[Phe(3-Me)]V[Bip][Cit][Orn][dL][Dab]LVQC[Orn][Aun]-OH; thioether N-14), for which the pIC50 is 7.15.

Take `Cc1cccc(C[C@@H]2NC(=O)[C@H](CC(=O)O)NC(=O)[C@H](Cc3ccc(O)cc3)NC(=O)[C@H](CC(N)=O)NC(=O)CSC[C@@H](C(=O)N[C@@H](CCN)C(=O)NCCCCCCCCCCC(=O)O)NC(=O)[C@@H](CCC(N)=O)NC(=O)[C@H](C(C)C)NC(=O)[C@H](CC(C)C)NC(=O)[C@H](CCN)NC(=O)[C@@H](CC(C)C)NC(=O)[C@H](CCCN)NC(=O)[C@H](CCCNC(N)=O)NC(=O)[C@H](Cc3ccc(-c4ccccc4)cc3)NC(=O)[C@H](C(C)C)NC2=O)c1` [Compound 2791] ({CH2CO}-NYD[Phe(3-Me)]V[Bip][Cit][Orn][dL][Dab]LV[dQ]C[Dab][Aun]-OH; thioether N-14): the pIC50 was 7.44. As for `Cc1cccc(C[C@@H]2NC(=O)[C@H](CC(=O)O)NC(=O)[C@H](Cc3ccc(O)cc3)NC(=O)[C@H](CC(N)=O)NC(=O)CSC[C@@H](C(=O)N[C@@H](CCCN)C(=O)NCCCCCCCCCCC(=O)O)NC(=O)[C@@H](CCC(N)=O)NC(=O)[C@H](C(C)C)NC(=O)[C@H](CC(C)C)NC(=O)[C@H](CCN)NC(=O)[C@@H](CC(C)C)NC(=O)[C@H](CCCN)NC(=O)[C@H](CCCNC(N)=O)NC(=O)[C@H](Cc3ccc(-c4ccccc4)cc3)NC(=O)[C@H](C(C)C)NC2=O)c1` [Compound 2792] ({CH2CO}-NYD[Phe(3-Me)]V[Bip][Cit][Orn][dL][Dab]LV[dQ]C[Orn][Aun]-OH; thioether N-14), the pIC50 was 7.12.

As to `CC(C)C[C@H]1NC(=O)[C@H](CCCN)NC(=O)[C@H](C(C)C)NC(=O)[C@H](Cc2ccc(-c3ccccc3)cc2)NC(=O)[C@H](C(C)C)NC(=O)[C@H](Cc2c[nH]c3ccccc23)NC(=O)[C@H](CC(=O)O)NC(=O)[C@H](Cc2ccc(OCC(=O)O)cc2)NC(=O)[C@H](CN)NC(=O)CSC[C@@H](C(=O)N[C@@H](CCN)C(=O)NCCCCCCCCCCC(=O)O)NC(=O)[C@H](CCC(N)=O)NC(=O)[C@H](C(C)C)NC(=O)[C@H](CC2CCCCC2)NC(=O)[C@H](Cc2c[nH]cn2)NC1=O` [Compound 2793] ({CH2CO}-[Dap]Y(Carboxymethyl)DWV[Bip]V[Orn][dL]H[Cha]VQC[Dab][Aun]-OH; thioether N-14), the pIC50 is 7.67. Turning to `CC(C)C[C@H]1NC(=O)[C@H](CCCN)NC(=O)[C@H](C(C)C)NC(=O)[C@H](Cc2ccc(-c3ccccc3)cc2)NC(=O)[C@H](C(C)C)NC(=O)[C@H](Cc2c[nH]c3ccccc23)NC(=O)[C@H](CC(=O)O)NC(=O)[C@H](Cc2ccc(OCC(=O)O)cc2)NC(=O)[C@H](CN)NC(=O)CSC[C@@H](C(=O)N[C@@H](CCCN)C(=O)NCCCCCCCCCCC(=O)O)NC(=O)[C@H](CCC(N)=O)NC(=O)[C@H](C(C)C)NC(=O)[C@H](CC2CCCCC2)NC(=O)[C@H](Cc2c[nH]cn2)NC1=O` [Compound 2794] ({CH2CO}-[Dap]Y(Carboxymethyl)DWV[Bip]V[Orn][dL]H[Cha]VQC[Orn][Aun]-OH; thioether N-14), the pIC50 was 7.55. With `CC(C)C[C@H]1NC(=O)[C@H](CCCN)NC(=O)[C@H](C(C)C)NC(=O)[C@H](Cc2ccc(-c3ccccc3)cc2)NC(=O)[C@H](C(C)C)NC(=O)[C@H](Cc2c[nH]c3ccccc23)NC(=O)[C@H](CC(=O)O)NC(=O)[C@H](Cc2ccc(OCC(=O)O)cc2)NC(=O)[C@H](CN)NC(=O)CSC[C@@H](C(=O)N[C@@H](CCN)C(=O)NCCCCCCCCCCC(=O)O)NC(=O)[C@@H](CCC(N)=O)NC(=O)[C@H](C(C)C)NC(=O)[C@H](CC2CCCCC2)NC(=O)[C@H](Cc2c[nH]cn2)NC1=O` [Compound 2795] ({CH2CO}-[Dap]Y(Carboxymethyl)DWV[Bip]V[Orn][dL]H[Cha]V[dQ]C[Dab][Aun]-OH; thioether N-14), the pIC50 was 7.20.

As for `CC(C)C[C@H]1NC(=O)[C@H](CCCN)NC(=O)[C@H](C(C)C)NC(=O)[C@H](Cc2ccc(-c3ccccc3)cc2)NC(=O)[C@H](C(C)C)NC(=O)[C@H](Cc2c[nH]c3ccccc23)NC(=O)[C@H](CC(=O)O)NC(=O)[C@H](Cc2ccc(OCC(=O)O)cc2)NC(=O)[C@H](CN)NC(=O)CSC[C@@H](C(=O)N[C@@H](CCCN)C(=O)NCCCCCCCCCCC(=O)O)NC(=O)[C@@H](CCC(N)=O)NC(=O)[C@H](C(C)C)NC(=O)[C@H](CC2CCCCC2)NC(=O)[C@H](Cc2c[nH]cn2)NC1=O` [Compound 2796] ({CH2CO}-[Dap]Y(Carboxymethyl)DWV[Bip]V[Orn][dL]H[Cha]V[dQ]C[Orn][Aun]-OH; thioether N-14), the pIC50 is 7.11.
